Measurements taken from patent US20260198526A1, “METHOD FOR PROMOTING DIFFERENTIATION OF ANIMAL CELL” (Ajinomoto Co., Inc., priority 2023, published 2026).

Test system: chicken muscle stem cells
Assay: Muscle differentiation of chicken muscle stem cells in serum-free differentiation medium (MyHC immunocytochemistry, Fusion Index)
Format: cell-based
Conditions: additive concentrations of Table 1, second day, FIG. 2
Protocol: Muscle tissue was collected from edible bovine shank meat, and CD56-positive cells were isolated using a Magnetic-Activated Cell Sorting (MACS) system to obtain bovine muscle stem cells. Separately, muscle stem cells were isolated from edible chicken breast meat.
Then, on the second day, the expression of myosin heavy chain (MyHC) was measured by immunocytochemistry. The cells were fixed with 4% paraformaldehyde (Nacalai Tesque, Cat No. 09154-85) for 15 minutes. After washing twice with Dulbecco's phosphate-buffered saline (without Ca, Mg) (Nacalai Tesque, Cat No. 14249-24), the cells were immersed in Dulbecco's phosphate-buffered saline (without Ca, Mg) containing 0.1% Triton X-100 (Sigma, Cat No. T9284) for 10 minutes. Then, the solution was replaced with a blocking buffer and left to stand for 1 hour. As the blocking buffer, a solution was used in which Dulbecco's phosphate-buffered saline (without Ca, Mg) was supplemented with 5% horse serum and 0.1% Triton X-100. […] MyHC-positive cells were detected with a fluorescence microscope ECLIPSE Ti2-E (Nikon), and the Fusion Index (=Number of MyHC-positive nuclei/Total number of nuclei×100(%)) was calculated. […]
Then, on the second day, the expression of myosin heavy chain (MyHC) was measured by the same method as in (1-2).

Compound: OCc1ccccc1O[C@@H]1O[C@H](CO)[C@@H](O)[C@H](O)[C@H]1O [Salicin]
- muscle differentiation (MyHC expression, Fusion Index): promoted the muscle differentiation of chicken cells
